What all share (assay): DTP human tumour cell line panel, 48 h
Assay [1] has as its system KM12 colon.
The test system of assay [2] is DU-145 prostate.
For assay [3], the system named is TK-10 renal.
Assay [4] deals with PC-3 prostate.
The subject of assay [5] is OVCAR-3 ovarian.
Assay [6] relates to SF-295 CNS.
Assay [7] concerns HCT-15 colon.
In assay [8] the test system is HOP-62 NSCLC.
Assay [9] concerns HL-60(TB) leukemia.
The test system of assay [10] is SNB-75 CNS.

Structures are written as SMILES.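 Compound exposure: 48 hours, 5 concentrations, 96-well plates. Abbreviation: GI50, concentration required for 50% inhibition of growth. TGI marks complete inhibition of growth.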 A value given as a limit tells only on which side of the number the result lay.

A word on the GI50: it is the concentration that inhibits growth by half. Usually TGI stands for the concentration at which net growth stops. A high value points to lower sensitivity of the cells. As to `O=C(Nc1nc2c(s1)CCc1c-2c(Br)n(Cc2ccccc2)c1Br)c1ccccc1`, the GI50 in assay [1] is 6.19 µM; in [2], 5.19 µM; in assay [3], 2.98 µM; in assay [4], 4.26 µM; in [5], 4.24 µM; in assay [6], 3.01 µM. The GI50 in assay [7] was 12.4 µM; in [8], 2.13 µM; in assay [9], 45.3 µM; in assay [10], 1.77 µM. Further, the concentration for total growth inhibition (TGI) is greater than 100 µM in assay [1]; greater than 100 µM in assay [2]; 7.85 µM in [3]; greater than 100 µM in [4]; 17.3 µM in assay [5]; 13.2 µM in assay [6]. For the same compound, the TGI in assay [7] was greater than 100 µM; in [8] it was 6.72 µM; in assay [9], greater than 100 µM; in assay [10], 4.74 µM.

For the compound `CCOC(=O)c1cc2cc(OCc3ccccc3)ccc2[nH]1`, the GI50 in assay [1], in assay [2], in [3], in assay [4], in assay [5] and in assay [6] was greater than 100 µM in each case. Also, the GI50 is greater than 100 µM in [7], 92.7 µM in assay [8], 12.2 µM in assay [9] and 26 µM in assay [10]. Also, the TGI in [1], in assay [2], in assay [3], in assay [4], in assay [5] and in [6] was greater than 100 µM each time. Besides, the concentration for total growth inhibition (TGI) in assay [7] was greater than 100 µM; in assay [8], greater than 100 µM; in [9] it was 66.7 µM; in [10], greater than 100 µM.

Consider `CCN(CCNc1ccc(C)c2sc3cc(Cl)ccc3c(=O)c12)CC(C)(C)O`, for which the GI50 in [1] is 2.32 µM; in assay [2] it was 13.1 µM; in [3], 3.59 µM; in [4], 12 µM; in [5], 18.6 µM; in [6], 1.86 µM. Also, the GI50 in assay [7] was 3.3 µM; in assay [8] it was 3.87 µM; in assay [9] it was 12.2 µM; in [10], 3.31 µM. Further, the TGI in [1] is 5.54 µM; in [2], 40.6 µM; in [3] it was 13.9 µM; in assay [4], greater than 100 µM; in assay [5] it was 62.9 µM; in [6], 4.34 µM. Besides, the total growth inhibition concentration (TGI) in [7] stood at 12 µM; in assay [8] it was 16.1 µM; in [9], 44.7 µM; in [10] it was 16.8 µM.

`CC1=NN(c2nc(N)nc(/C=C\c3ccccc3)n2)C(C)(C)C1`: the GI50 in [1] is 1.59 µM; in assay [2] it was 3.16 µM; in assay [3] it was 7.76 µM; in assay [4] it was 4.41 µM; in assay [5] it was 3.73 µM; in [6] it was 11.7 µM. Besides, the GI50 in assay [7] is 3.27 µM; in assay [8], 14.9 µM; in assay [9], 10.8 µM; in assay [10] it was 6.36 µM. In addition, the TGI in [1] is 10.5 µM; in assay [2], 15.5 µM; in assay [3], 22.2 µM; in assay [4] it was 19.7 µM; in assay [5] it was 16.1 µM; in [6], 30.5 µM. For the same compound, the TGI was 44.7 µM in [7], 29.7 µM in assay [8], 39.5 µM in [9] and 25.6 µM in assay [10].

In the case of `CN1CC[C@]23c4c5ccc(O)c4OC2c2[nH]ncc2C[C@H]3[C@H]1C5` (stereo not given in full), the total growth inhibition concentration (TGI) in assay [1], in assay [2], in assay [3], in assay [4], in assay [5] and in [6] was greater than 100 µM throughout. Also, the concentration for total growth inhibition (TGI) in assay [7], in [8], in assay [9] and in [10] was greater than 100 µM throughout.

On to `CCN(CC)CCS(=O)(=O)CCNc1ccnc2cc(Cl)ccc12`, for which the GI50 in assay [1] was 2.41 µM; in assay [2], 2.43 µM; in [3] it was 1.07 µM; in assay [4], 3.82 µM; in assay [5], 1.47 µM; in assay [6], 8.38 µM. In addition, the GI50 is 2.33 µM in [7], 4.99 µM in assay [8], 1.37 µM in [9] and 2.07 µM in [10]. Moreover, the concentration for total growth inhibition (TGI) in assay [1] is greater than 24.3 µM; in assay [2], greater than 32.8 µM; in assay [3], 4.3 µM; in [4] it was greater than 100 µM; in assay [5], 15.3 µM; in [6] it was greater than 64 µM. Besides, the concentration for total growth inhibition (TGI) in assay [7] is greater than 38.1 µM; in [8] it was greater than 100 µM; in assay [9], 20 µM; in [10] it was greater than 29 µM.

For the compound `CCOC(=O)n1c2ccccc2c(=O)n1CCO`, the total growth inhibition concentration (TGI) in assay [1], in assay [2], in assay [3], in [4], in [5] and in assay [6] was greater than 100 µM throughout. In addition, the total growth inhibition concentration (TGI) in assay [7], in assay [8], in assay [9] and in assay [10] was greater than 100 µM throughout.

Regarding `O=C(/C=C/c1cccc(Oc2ccc(Cl)cc2)c1)c1ccccc1`, the GI50 in assay [1] was 34.9 µM; in assay [2] it was 69.7 µM; in assay [3] it was 192 µM; in assay [4], 19.7 µM; in assay [5] it was 21.1 µM; in assay [6] it was 60 µM. Moreover, the GI50 is 18.7 µM in assay [7], 113 µM in assay [8], 23.4 µM in [9] and 124 µM in assay [10]. Further, the total growth inhibition concentration (TGI) in assay [1] is 125 µM; in [2], 207 µM; in [3] it was 342 µM; in assay [4] it was 37.8 µM; in assay [5], 42.8 µM; in assay [6] it was 196 µM. The TGI in assay [7] was 44.6 µM; in assay [8], 272 µM; in assay [9] it was 58.4 µM; in [10] it was 269 µM.

These data come from PubChem BioAssay (NCI).
